Test results taken from patent US11229655B2, “Fulvestrant formulations” (Fresenius Kabi USA, LLC, priority 2014, dated 2022).
≈ marks a conversion by molar mass, not a printed value. Like-named read-outs stand apart in the source and are kept apart here.

How the values were obtained:
[1] = Fulvestrant solubility in castor oil based liquid formulations, HPLC assay; type: physicochemical; conditions: castor oil q.s., 10% w/v ethanol, 10% w/v benzyl alcohol
Method: To determine the effect of other compounds on the solubility of fulvestrant in a castor oil vehicle containing 10% ethanol and 10% benzyl alcohol, several liquid formulations were prepared by mixing using standard techniques, as summarized in Table 1. Fulvestrant solubility in each formulation was determined by an HPLC assay.

[2] = U.S. Pat. No. 6,774,122, cited from earlier work
[3] = cited from earlier work

With `C[C@]12CC[C@@H]3c4ccc(O)cc4C[C@@H](CCCCCCCCC[S+]([O-])CCCC(F)(F)C(F)(F)F)[C@H]3[C@@H]1CC[C@@H]2O` (stereo partly drawn) [Fulvestrant, 7α-[9-(4,4,5,5,5-pentafluoropentylsulfinyl)nonyl]oestra-1,3,5(10)-triene 3,17 β-diol] the solubility ([1]; castor oil based liquid formulation, oil or lipid, 0.05% w/v polysorbate 80, read-out: Solubility) was 76.5 mg/mL (≈ 126 mM), the solubility ([1]; castor oil based liquid formulation, oil or lipid, 0.1% w/v polysorbate 80, read-out: Solubility) was 82.5 mg/mL (≈ 136 mM) and the solubility ([1]; castor oil based liquid formulation, oil or lipid, 0.16% w/v polysorbate 80, read-out: Solubility) was 90 mg/mL (≈ 148 mM). The solubility ([1]; castor oil based liquid formulation, oil or lipid, 0.2% w/v polysorbate 80, read-out: Solubility) was 95 mg/mL (≈ 157 mM), the solubility ([1]; castor oil based liquid formulation, oil or lipid, 15% w/v ethyl oleate, read-out: Solubility) was 66.8 mg/mL (≈ 110 mM) and the solubility ([1]; castor oil based liquid formulation, oil or lipid, 15% w/v isopropyl myristate, read-out: Solubility) was 63.9 mg/mL (≈ 105 mM). The solubility ([1]; castor oil based liquid formulation, oil or lipid, 15% w/v isopropyl palmitate, read-out: Solubility) was 67.6 mg/mL (≈ 111 mM), the solubility ([1]; 0.09% w/v polysorbate 80) was 82.1 mg/mL (≈ 135 mM) and the “solubility of fulvestrant in a castor oil vehicle” value ([2]; castor oil vehicle containing 10% ethanol, 10% benzyl alcohol, 15% benzyl benzoate) was 65 mg/mL. The “solubility of fulvestrant in castor oil” value ([2]; castor oil) was 20 mg/mL and the solubility in water [3] was “practically insoluble in water”.
